{"source": "patent US20240317806A1", "about": "“TOPICAL PEPTIDE FORMULATION FOR THE TREATMENT OF SEXUAL DYSFUNCTION” (priority 2023, published 2024)", "key": {"[1]": {"experiment": "Physicochemical properties of PnPP-19 peptide (pI, pKa)", "from_the_text": "Aspects of the disclosure relate to pharmaceutical compositions comprising a PnPP-19 peptide (e.g., a peptide comprising or consisting of the amino acid sequence set forth in SEQ ID NO: 1). PnPP-19 is a synthetic, non-toxic peptide composed of 19 amino acid residues originating from the PnTx2-6 toxin, which was isolated from the venom of the Brazilian armadeira spider (Phoneutria nigriventer). In some embodiments, the isolated peptide (e.g., PnPP-19) is presented as a freeze-dried white powder (e.g., a solid physical form). In some embodiments, PnPP-19 is an amphipathic peptide with about 26% cationic amino acid residues. In some embodiments, PnPP-19 is positively charged at pH 7."}, "[2]": {"experiment": "Release test in Franz vertical diffusion cells", "assay_type": "in vitro ADME", "conditions": "peptide applied in saline or in the buffer of the formulations; after 6 hours (peak) and until 24 hours", "description": "For the release test, a cellulose acetate membrane was used to generate the physical barrier between a donor compartment, where the formulations are added, and the recipient compartment, where the peptide is measured.\n(§1) The assays were conducted in Franz vertical diffusion cells with 1.767 cm^2 of area for diffusion of the peptide, containing a donor compartment with a capacity of 1 mL and a recipient compartment with a capacity of 7 mL. To the recipient compartment, 7 mL of the biorelevant solution were added, in which the media selected by preliminary studies was 20 mM sodium acetate buffer pH 5.0+0.5% Tween® 20. […] The cells were placed in a thermostatic bath, with a temperature of 37° C.±0.5° C., with the goal to mimic the surface temperature. The bioreceptor medium was subjected to 350 rpm agitation. In times 0.5-, 1-, 2-, 4-, 6- and 24 h, collections of 1 mL were made from the recipient compartment, in order to measure the peptide content."}, "[3]": {"experiment": "Second permeation test in Franz cells", "assay_type": "in vitro ADME", "conditions": "Strat-M membrane; applied in the FAPP20 buffer (20 mM sodium acetate buffer solution)", "description": "In the first permeation assay, the physical barrier was the whole pig skin, which mimics the human stratum corneum. In the second permeation test, the physical barrier was the Strat-M membrane, which mimics the human stratum corneum.\nas §1\nIn the first permeation assay, PnPP-19 was formulated with 6 μM of alpha cyclodextrin or with transcutol 15%.\nBased on the release results described above, the 20 mM sodium acetate buffer pH 5.0+0.5% Tween® 20 was confirmed as the best receiving medium to be used in the permeation assay with Strat M membrane."}, "[4]": {"experiment": "Biodistribution and pharmacokinetics after topical administration of radiolabeled PnPP-19 in FAPP20", "assay_type": "in vivo, rats", "description": "In order to evaluate the in vivo permeation of the peptide (and/or its fragments) in the formulation FAPP20, a biodistribution study was carried out in healthy rats. The peptide was radiolabeled with iodine [^131I] NaI using chloramine T method.\nThe study was conducted considering the dose of 5 mg/ml; and the maximum area of genital application. The final application volume was 100 μL that results in a dose of 2 mg/kg. The evaluation of biodistribution was carried out after the administration of a single dose of the peptide, applied topically to the skin of the penis after trichotomy of the rat's genital area.\nRegarding biodistribution data, radiolabeled peptide concentrations were higher in skin, foreskin and SMC tissue at all times studied. In the first analyzed time, of 15 minutes, it was already possible to detect the peptide in the target tissues: the SMC layer, and the first layer of the skin, where the penile nerves are found (herein called of foreskin), showing that the peptide is rapidly absorbed into the skin. Within 30 minutes, its detection falls at the initial application site (skin), and increases in the foreskin, showing that it continues to be absorbed, and remains stable in the SMC layer. Within 60 minutes it is practically undetectable in tissues (FIG. 4).\nFor the pharmacokinetic (PK) study, the blood of the animals was collected at 0 h (predose), 15, 30 and 60 minutes, 3, 8 and 24 hours. All samples collected were quantified in a Wizard 3 gamma counter (PerkinElmer) for later calculation of the percentage of dose applied per gram of organ. […] While 42% of the applied dose is in the first layer of the skin, the peptide is detected in up to 18% in the SMC layer. Both peptide and its fragments were not found systemically (<1%) in the organs of choice (kidneys, testicles and epididymis) or in the blood, at any of the evaluated time-points, showing that the formulation remains in the application site, with no systemic absorption."}, "[5]": {"experiment": "Phase 1 clinical study: pharmacokinetics", "assay_type": "in vivo, human", "conditions": "12 subjects", "description": "Related to the pharmacokinetic analysis, the following outcomes were considered: detection of BZ371A, and its fragments, in the blood at the following collected times: pre-dose, 15, 30, 60, 180 and 360 minutes; if detected, determine the pharmacokinetic parameters: maximum concentration, half-life, area under the curve, clearance, volume of distribution."}, "[6]": {"system": "erectile function of healthy rats", "experiment": "Erectile function (ICP/MAP ratio) after ganglionic electrical stimulation", "assay_type": "in vivo, Sprague Dawley rats", "conditions": "peptide topical 4 mg/Kg 15 min before; sildenafil SC 25 mg/Kg 30 min before; EFS 8 Hz; 0-45 min", "from_the_text": "For this study, PnPP-19 was produced with TFA or Acetate as a counter-ion. Usually, peptides with TFA as a counter-ion are used in the preclinical stage of development; nevertheless, for safety purposes, the counter-ion is changed to acetate for clinical stage of development. […] Also, to compare if the counter-ion exchange would impact the biological effect of PnPP-19, two peptide batches was produced: one with the counter-ion TFA and another with the counter-ion Acetate. Sildenafil was used as a positive control (subcutaneously administration).\n(§2) Erectile function was evaluated by means of the intracavernosal pressure/mean arterial pressure (ICP/MAP) ratio at 4 different times (0, 15, 30 and 45 minutes) after application of ganglionic electrical functional stimulus (EFS) of 8 Hz.\n(§3) The formulated peptide (both with TFA counter-ion and Acetate) was applied topically to the penis of the rats 15 minutes before ICP/MAP measurements, at a dose of 1000 μg diluted in 200 μL of the formulation (dose of 4 mg/Kg), reaching a concentration of 5 mg/mL or 0.5% w/v of the peptide in the formulation. Sildenafil was applied SC, at a dose of 25 mg/Kg (1 mL/Kg) 30 minutes before ICP/MAP measurements."}, "[7]": {"experiment": "Mean arterial pressure and dermal irritation in the erectile function study", "assay_type": "in vivo, Sprague Dawley rats", "conditions": "for MAP: mean ± standard deviation", "description": "as §2, §3"}}, "data": [{"compound": "Ac-GERRQYFWIAWYKLANSKK-NH2 [PnPP-19]", "values": [{"measurement": "pKa", "setting": "[1]", "result": 12.4}, {"measurement": "quantification of PnPP-19 in the receptor media (controls)", "setting": "[2]", "result": "can be quantified in the receptor media"}, {"measurement": "detection of PnPP-19 in the receptor compartment (control)", "setting": "[3]", "result": "detected in the receptor compartment since initial time (0.5 h)"}, {"measurement": "applied dose/gram found in CC tissue (SMC layer)", "setting": "[4]; 15 minutes after topical application to rat penis, normalized", "result": "up to 18%"}, {"measurement": "applied dose/gram found in the skin", "setting": "[4]; 15 minutes after topical application to rat penis, normalized to total in all tissues", "result": 42, "unit": "%"}, {"measurement": "peptide and fragments found systemically (kidneys, testicles, epididymis, blood)", "setting": "[4]; any of the evaluated time-points up to 24 hours", "result": "< 1", "unit": "%"}, {"measurement": "plasma concentrations of BZ371A fragments", "setting": "[5]; no detectable concentrations, limit of detection=40 ng/ml", "result": "< 40", "unit": "ng/mL"}, {"measurement": "plasma concentrations of BZ371A", "setting": "[5]; no quantifiable concentrations, LIQ=50 ng/ml, pre-dose to 360 minutes", "result": "< 50", "unit": "ng/mL"}]}, {"compound": "CCCc1nn(C)c2c(=O)[nH]c(-c3cc(S(=O)(=O)N4CCN(C)CC4)ccc3OCC)nc12", "note": "[Sildenafil, sildenafil]", "values": [{"measurement": "erectile function (ICP/MAP ratio) compared to negative control (vehicle)", "setting": "[6]", "result": "not superior to the negative control group"}, {"measurement": "MAP", "setting": "[7]; 0 min", "result": "87 ± 10 (**) mmHg"}, {"measurement": "MAP", "setting": "[7]; 15 min", "result": "93 ± 8 (*) mmHg"}, {"measurement": "MAP", "setting": "[7]; 30 min", "result": "93 ± 8 (***) mmHg"}, {"measurement": "MAP", "setting": "[7]; 45 min", "result": "94 ± 7 (***) mmHg"}, {"measurement": "effect on MAP / systemic hypotension compared to vehicle", "setting": "[7]; rats", "result": "significant decrease in MAP"}]}]}
